From US11272841B2, “Indicator fluids, systems, and methods for assessing movement of substances within, to or from a cerebrospinal fluid, brain or spinal cord compartment of a cranio-spinal cavity of a human” (BRAINWIDESOLUTIONS AS, priority 2017, dated 2022)
Marks after values point to notes of the source that are not given here.

Test: Repeated standardized T1-weighted MRI: signal units (SU) in ROIs of CSF, venous space and brain tissue after intrathecal gadobutrol, iNPH versus reference patients (Tables 2-4, FIG. 14b, 16)
Assay type: in vivo, human
Protocol: The different features of Aspect 2 are based on novel in-vivo observations in humans. […] In the following paragraphs, these novel observations in humans are commented on in more detail. In these studies, the MRI contrast agent gadobutrol served as indicator fluid and MRI SUs were indication signals. MRI T1 weighted signal units were measured when gadobutrol was present within CSF after having been administered to the CSF compartment, and were compared with MR images having identical sequence parameter settings and with no gadobutrol present in CSF. […] With a MW of 605 Da, gadobutrol is a rather large molecule in comparison to the MW of water (H2O) molecule, which is 18 Da. Clearance of gadobutrol is then indicative of clearance of other substances with similar properties.
We explored both movement of the contrast agent within, to, and from the cranio-spinal cavity, including CSF, brain and spinal cord compartment, and from the cranio-spinal cavity to extra-cranial LNs. With gadobutrol present within CSF, blood level concentrations of contrast agents were determined at various time point. The repeated MRI acquisitions made it possible to create clearance curves for one or more pixels, defined by ROIs. ROIs were placed within CSF compartments, brain and spinal cord tissue compartments, and extracranial LN tissue compartments. By means of MRI, we could create graphic curves illustrating clearance of substances (clearance illustrating curves) for defined ROIs built up of a defied number of pixels for each individual. For details of said clearance curves, see FIG. 7. The establishment of clearance curves was dependent on repeated MRI acquisitions over a long period.
Using MRI SUs, we created clearance illustrating curves, see FIG. 7, for the individual patients as well as for groups of individuals. Tables 2-4 illustrate various examples of parameter values of the clearance illustrating curves.
Table 2, as discussed with FIG. 2, illustrates how maximum increase in SUs varies between individuals and patient groups. Tables 3 and 4 compare such clearance curve parameters from two patient groups, namely iNPH and reference (i.e. control) patients, illustrating inter-individual differences and differences between patient groups. These patient groups represent no limitation of the invention as it may be used in various patient groups such as Alzheimer's and dementia in general, brain tumor (e.g. astrocytoma), multiple sclerosis and inflammatory brain disease, stroke (brain infarction or bleeds), sleep disturbances, neurodegenerative disease, CSF circulation disorders, traumatic brain injury, neurometabolic diseases, glaucoma, chronic headache and migraine, and in assessment of ageing in general.
Even though perfect match of ROIs of repeated images may be difficult to obtain, the second aspect of the invention is facilitated by that image acquisition parameters at repeated MRI acquisitions are kept fixed and thus standardized. […] Further, to make best possible alignments of pixels, methods for alignment of repeated MRI acquisitions need to be implemented. Methods for alignment of repeated MRI images belong to prior art. Aids to improve alignment may incorporate landmark locations such as the cranial vault, pineal gland, and ventricular system.
Each image acquisition lasted 6 minutes and 29 seconds.

[1] = Brain parenchyma: Frontal horn, Reference
[2] = Brain parenchyma: Frontal horn, iNPH
[3] = Brain parenchyma: Inferior frontal gyrus (IFG), Reference
[4] = Brain parenchyma: Inferior frontal gyrus (IFG), iNPH
[5] = Brain parenchyma: Pons, Reference
[6] = Brain parenchyma: Precentral gyrus, Reference
[7] = Brain parenchyma: Precentral gyrus, iNPH
[8] = Brain parenchyma: Thalamus, Reference
[9] = Brain parenchyma: Thalamus, iNPH
[10] = CSF space: 3rd Ventricle, Reference
[11] = CSF space: 4th Ventricle, Reference
[12] = CSF space: Foramen Magnum, Reference
[13] = CSF space: Foramen Magnum, iNPH
[14] = CSF space: Lateral Ventricle, Reference

Enhancement coefficient (SU/min) [1]: 0.05 SU/min
Max increase (SU) [1]: 7.9 ± 7.9 SU
Time to peak [1]: 1109.8 ± 585.6 min
Enhancement coefficient (SU/min) [2]: 0.04 SU/min
Max increase (SU) [2]: 48.5 ± 32.8^b SU
Time to peak [2]: 1349.3 ± 350.9 min
Enhancement coefficient (SU/min) [3]: 0.02 SU/min
Max increase (SU) [3]: 23.8 ± 20.9 SU
Time to peak [3]: 1421.3 ± 53.1 min
Enhancement coefficient (SU/min) [4]: 0.03 SU/min
Max increase (SU) [4]: 39.1 ± 25.3 SU
Time to peak [4]: 1358.0 min
Enhancement coefficient (SU/min) [5]: 0.08 SU/min
Time to peak [5]: 929.4 ± 676.9 min
Enhancement coefficient (SU/min) (Brain parenchyma: Pons, iNPH): 0.03 SU/min
Time to peak (Brain parenchyma: Pons, iNPH): 1090.0 ± 602.3 min
Enhancement coefficient (SU/min) [6]: 0.03 SU/min
Max increase (SU) [6]: 7.8 ± 11.2 SU
Time to peak [6]: 742.8 ± 727.9 min
Enhancement coefficient (SU/min) [7]: 0.04 SU/min
Max increase (SU) [7]: 9.0 ± 8.3 SU
Time to peak [7]: 900.0 ± 686.4 min
Enhancement coefficient (SU/min) [8]: 0.01 SU/min
Max increase (SU) [8]: 9.0 ± 7.1 SU
Time to peak [8]: 1288.4 ± 386.3 min
Enhancement coefficient (SU/min) [9]: 0.01 SU/min
Max increase (SU) [9]: 13.0 ± 6.8 SU
Time to peak [9]: 1261.7 ± 462.6 min
Clearance coefficient (SU/min) [10]: −0.09 ± 0.08 SU/min
Clearance time [10]: 1135.3 ± 74.2 min
Enhancement coefficient (SU/min) [10]: 0.4 SU/min
Max increase (SU) [10]: 115.1 ± 103.8 SU
Max reduction (SU) [10]: −103.7 ± 83.9 SU
Time to peak [10]: 253.8 ± 133.2 min
Clearance coefficient (SU/min) (CSF space: 3rd Ventricle, iNPH): −0.10 ± 0.07 SU/min
Clearance time (CSF space: 3rd Ventricle, iNPH): 1234.3 ± 116.2 min
Enhancement coefficient (SU/min) (CSF space: 3rd Ventricle, iNPH): 1.4 SU/min
Max increase (SU) (CSF space: 3rd Ventricle, iNPH): 243.6 ± 136.9^a SU
Max reduction (SU) (CSF space: 3rd Ventricle, iNPH): −114.4 ± 76.8 SU
Time to peak (CSF space: 3rd Ventricle, iNPH): 615.3 ± 587.5 min
Clearance coefficient (SU/min) [11]: −0.18 ± 0.08 SU/min
Clearance time [11]: 1287.6 ± 105.9 min
Enhancement coefficient (SU/min) [11]: 6.3 SU/min
Max increase (SU) [11]: 236.0 ± 142.9 SU
Max reduction (SU) [11]: −232.6 ± 103.7 SU
Time to peak [11]: 123.4 ± 98.1 min
Clearance coefficient (SU/min) (CSF space: 4th Ventricle, iNPH): −0.19 ± 0.1 SU/min
Clearance time (CSF space: 4th Ventricle, iNPH): 1234.4 ± 109.1 min
Enhancement coefficient (SU/min) (CSF space: 4th Ventricle, iNPH): 5.6 SU/min
Max increase (SU) (CSF space: 4th Ventricle, iNPH): 386.5 ± 138.2^a SU
Max reduction (SU) (CSF space: 4th Ventricle, iNPH): −231.6 ± 128.1 SU
Time to peak (CSF space: 4th Ventricle, iNPH): 286.7 ± 322.9 min
Clearance coefficient (SU/min) [12]: −0.28 ± 0.08 SU/min
Clearance time [12]: 1294.4 ± 154.5 min
Enhancement coefficient (SU/min) [12]: 17.7 SU/min
Max increase (SU) [12]: 426.0 ± 123.0 SU
Max reduction (SU) [12]: −358.1 ± 117.7 SU
Time to peak [12]: 129.4 ± 156.7 min
Clearance coefficient (SU/min) [13]: −0.16 ± 0.07^b SU/min
Clearance time [13]: 1264.3 ± 116.1 min
Enhancement coefficient (SU/min) [13]: 5.9 SU/min
Max increase (SU) [13]: 398.3 ± 108.0 SU
Max reduction (SU) [13]: −206.7 ± 90.8^b SU
Time to peak [13]: 174.5 ± 94.2 min
Clearance coefficient (SU/min) [14]: −0.07 ± 0.01 SU/min
Clearance time [14]: 1098.0 ± 12.5 min
Enhancement coefficient (SU/min) [14]: 0.13 SU/min
Max increase (SU) [14]: 42.5 ± 51.9 SU
Max reduction (SU) [14]: −72.3 ± 11.9 SU
Time to peak [14]: 402.6 ± 446.1 min
SMILES: O=C([O-])CN1CCN(CC(=O)[O-])CCN([C@H](CO)[C@H](O)CO)CCN(CC(=O)[O-])CC1.[Gd+3] (racemic) [gadobutrol]
